± gives the standard deviation of the averaged measurements.
Legend:
Conditions in all cases: 72 h
Caco-2 [1] = test: cell viability relative to DMSO; higher = less toxic
Calu-3 [2] = test: as above
HepG2 [3] = test: as above
U2OS [4] = test: as above
Vero E6 [5] = test: as above
Caco-2 [6] = test: relative viability EC50 (midpoint between 100% and the lowest measured viability); higher = less toxic
Calu-3 [7] = test: as above
HepG2 [8] = test: as above
U2OS [9] = test: as above
Vero E6 [10] = test: as above
Caco-2 [11] = test: drug sensitivity score (DSS) for viability; higher = more toxic; extreme values may be limits of the assay
Calu-3 [12] = test: as above
HepG2 [13] = test: as above
U2OS [14] = test: as above
Vero E6 [15] = test: as above

Row | Compound | cell viability (Caco-2 [1]; 1 nM) [%] | cell viability (Caco-2 [1]; 10 nM) [%] | cell viability (Caco-2 [1]; 100 nM) [%] | cell viability (Caco-2 [1]; 1000 nM) [%] | cell viability (Caco-2 [1]; 10000 nM) [%] | cell viability (Calu-3 [2]; 1 nM) [%] | cell viability (Calu-3 [2]; 10 nM) [%] | cell viability (Calu-3 [2]; 100 nM) [%] | cell viability (Calu-3 [2]; 1000 nM) [%] | cell viability (Calu-3 [2]; 10000 nM) [%] | cell viability (HepG2 [3]; 1 nM) [%] | cell viability (HepG2 [3]; 10 nM) [%] | cell viability (HepG2 [3]; 100 nM) [%] | cell viability (HepG2 [3]; 1000 nM) [%] | cell viability (HepG2 [3]; 10000 nM) [%] | cell viability (U2OS [4]; 1 nM) [%] | cell viability (U2OS [4]; 10 nM) [%] | cell viability (U2OS [4]; 100 nM) [%] | cell viability (U2OS [4]; 1000 nM) [%] | cell viability (U2OS [4]; 10000 nM) [%] | cell viability (Vero E6 [5]; 1 nM) [%] | cell viability (Vero E6 [5]; 10 nM) [%] | cell viability (Vero E6 [5]; 100 nM) [%] | cell viability (Vero E6 [5]; 1000 nM) [%] | cell viability (Vero E6 [5]; 10000 nM) [%] | relative viability EC50 (Caco-2 [6]) [µM] | relative viability EC50 (Calu-3 [7]) [µM] | relative viability EC50 (HepG2 [8]) [µM] | relative viability EC50 (U2OS [9]) [µM] | relative viability EC50 (Vero E6 [10]) [µM] | drug sensitivity score (Caco-2 [11]) | drug sensitivity score (Calu-3 [12]) | drug sensitivity score (HepG2 [13]) | drug sensitivity score (U2OS [14]) | drug sensitivity score (Vero E6 [15])
1 | CC(=O)N(OCc1ccccc1)[C@@H]1c2cc(C#N)ccc2OC(C)(C)[C@H]1O | 97.8 | 100 | 99 | 96.5 | 103 | 103 | 96.9 | 98 | 103 | 106 | 95.1 | 103 | 96.2 | 109 | 109 | 97.5 | 96.1 | 105 | 94.5 | 94.8 | 95.3 | 97.7 | 94.2 | 99.9 | 109 | > 10 | > 10 | > 10 | > 10 | > 10 | 0 | 0 | 0 | 0 | 0
2 | CC(C)(Cc1c[nH]c2ccc(Cl)cc12)NCCOc1ccccc1OCC1CC1 | 104 | 108 | 88.6 | 103 | 3.5 | 91.4 | 98.1 | 103 | 97.4 | 0.9 | 98.1 | 98.7 | 99.3 | 89.3 | -0.3 | 102 | 102 | 102 | 97.3 | 1.5 | 93.9 | 98 | 93.4 | 99.4 | 24.4 | 3.33 | 2.98 | 2.28 | 2.97 | 3.11 | 5.1 | 5.9 | 7.3 | 5.8 | 4.3
3 | CC(C)c1cccc2c(-c3ccccc3)cc(-c3ccc(-c4ccc(C(=O)O)cc4)[nH]3)nc12 | 89.3 | 102 | 96.5 | 91.7 | 76.1 | 103 | 96.2 | 99.2 | 117 | 103 | 94.8 | 87.1 | 100 | 98.8 | 87.6 | 97.5 | 101 | 98.9 | 103 | 96.9 | 95.6 | 94 | 86.7 | 83.9 | 91.3 | > 10 | > 10 | > 10 | > 10 | > 10 | 1.5 | 0 | 0 | 0 | 1.4
4 | CCN(CCNC(=O)Nc1ccccc1Br)c1cccc(C)c1 | 92.4 | 102 | 93.1 | 102 | 90.5 | 93.6 | 96.3 | 93.7 | 91.3 | 101 | 95.1 | 101 | 90.8 | 99.6 | 96.5 | 98.9 | 103 | 97 | 99.5 | 93.5 | 108 | 114 | 105 | 120 | 97.8 | > 10 | > 10 | > 10 | > 10 | > 10 | 0 | 0 | 0 | 0 | 0
5 | CCc1ccccc1OC[C@@H](O)CN[C@H]1CCCc2ccccc21 | 102 | 98.9 | 100 | 95.6 | 87.6 | 104 | 98.5 | 99.7 | 91.1 | 80.8 | 95.6 | 103 | 99.1 | 99.9 | 89.5 | 96.6 | 92.2 | 98.2 | 95.5 | 87 | 94.7 | 97.2 | 89.5 | 95.3 | 106 | > 10 | > 10 | > 10 | > 10 | > 10 | 0.3 | 1.4 | 0 | 0 | 0
6 | COc1ccc(OC)c2c(=S)c3ccccc3[nH]c12 | 112 | 96.7 | 99.5 | 102 | 88.6 | 105 | 100 | 99.4 | 108 | 106 | 88.8 | 96.3 | 94 | 98.9 | 76.6 | 102 | 98.3 | 102 | 99.7 | 103 | 99.4 | 104 | 102 | 97.2 | 96.2 | > 10 | > 10 | > 10 | > 10 | > 10 | 0 | 0 | 1 | 0 | 0
7 | Cc1cc(Cn2cnc3c2C[C@@H](C(=O)O)N(C(=O)C(c2ccccc2)c2ccccc2)C3)ccc1N(C)C | 91.4 | 97.9 | 94.1 | 108 | 110 | 87.3 | 106 | 103 | 98.1 | 114 | 101 | 90.7 | 105 | 99.9 | 110 | 93.3 | 102 | 96 | 103 | 107 | 96.5 | 90.4 | 99.3 | 96.5 | 103 | > 10 | > 10 | > 10 | > 10 | > 10 | 0 | 0 | 0 | 0 | 0
8 | Cc1nc(Nc2n[nH]c3c2CN(C(=O)N[C@H](CN(C)C)c2ccccc2)C3(C)C)c2sccc2n1 | 98.9 | 97.9 | 70.6 | 68.8 | 45.9 | 92.2 | 89.9 | 82 | 61.7 | 25.2 | 89 | 72.6 | 38.4 | 26.6 | 10.3 | 100 | 88.6 | 54.5 | 35 | 0.8 | 97.9 | 99.9 | 93.7 | 64.4 | 46.6 | 0.203 | 0.571 | 0.0349 | 0.192 | 0.552 | 9.5 | 10.1 | 24.9 | 19 | 7.4
9 | Clc1ccc(N2CCN(Cc3c[nH]c4ncccc34)CC2)cc1 | 103 | 98.1 | 95.5 | 93.5 | 87 | 88.6 | 99.1 | 101 | 92.9 | 87.9 | 102 | 93.8 | 97.1 | 93.6 | 79.8 | 96.1 | 98.2 | 95.9 | 102 | 92.2 | 94.9 | 102 | 97.4 | 96.2 | 102 | > 10 | > 10 | > 10 | > 10 | > 10 | 0.1 | 0 | 1.1 | 0 | 0
10 | Cn1cc(C(=O)OCC2CCN(CCNS(C)(=O)=O)CC2)c2ccccc21 | 99 | 95.8 | 85.9 | 93.3 | 96.8 | 86 | 109 | 100 | 103 | 108 | 96.1 | 96.3 | 93.9 | 93.3 | 91.3 | 99.7 | 101 | 96.8 | 98.8 | 95.3 | 101 | 96.8 | 100 | 95.1 | 96.5 | > 10 | > 10 | > 10 | > 10 | > 10 | 0 | 0 | 0 | 0 | 0
11 | Nc1n[nH]c2nnc(-c3c(-c4ccccc4)nn4ccccc34)cc12 | 95.7 | 107 | 90.4 | 97.1 | 84.3 | 98.9 | 102 | 99.8 | 90 | 95 | 102 | 95.2 | 103 | 97.9 | 91.8 | 98.2 | 102 | 94.9 | 102 | 89.1 | 105 | 93.6 | 97 | 94.8 | 84.5 | > 10 | > 10 | > 10 | > 10 | > 10 | 0.2 | 0 | 0 | 0 | 0.2
12 | O=C(O)COc1cccc(-c2ocnc2-c2nc(-c3ccccc3)c(-c3ccccc3)o2)c1 | 109 | 101 | 95.5 | 94.4 | 81.8 | 92.9 | 95.8 | 95 | 100 | 105 | 105 | 102 | 93.6 | 95 | 105 | 102 | 97.7 | 97.5 | 102 | 101 | 99 | 104 | 102 | 104 | 101 | > 10 | > 10 | > 10 | > 10 | > 10 | 0.7 | 0 | 0 | 0 | 0
13 | O=c1cc(N2CCNCC2)oc2c(-c3ccccc3)cccc12 | 93.3 | 88.9 | 89.2 | 93.9 | 106 | 109 | 98.4 | 108 | 106 | 117 | 105 | 100 | 98.2 | 101 | 102 | 96.6 | 100 | 96.8 | 102 | 101 | 100 | 96.4 | 104 | 93.1 | 103 | > 10 | > 10 | > 10 | > 10 | > 10 | 0 | 0 | 0 | 0 | 0
14 | C[C@@H](C1=C(CCN(C)C)Cc2ccccc21)c1ccccn1 (racemic) [dimetindene] | 93.1 ± 6.5 | 98.2 ± 4.7 | 96.3 ± 4.6 | 102 ± 10 | 104.8 ± 0.92 | 98.2 ± 2 | 113 ± 4 | 103.2 ± 0.21 | 105 ± 3.2 | 96 ± 2 | 104 ± 4.7 | 98 ± 4.8 | 106 ± 5.9 | 89.7 ± 3.2 | 103 ± 2.5 | 99.5 ± 0.57 | 104 ± 1.8 | 99.3 ± 7.8 | 100 ± 1.4 | 94.8 ± 2.6 | 97.2 ± 8 | 98.2 ± 1.2 | 100.2 ± 0.78 | 100 | 96.5 ± 8 | > 10 | > 10 | > 10 | > 10 | > 10 | 0 | 0 | 0 | 0 | 0

Source: the supplement of paper PMC13380429
